The values below come from ChEMBL document CHEMBL1177690, “Target-specific control of lymphoid-specific protein tyrosine phosphatase (Lyp) activity” (Bioorg Med Chem, 2010).

Each structure is given as a SMILES string.

The experiment in a line: Inhibition of Lyp CCPGCC mutant expressed in Escherichia coli […].

In general, IC50 refers to the concentration needed to halve the response being measured. Read a high IC50 as weaker potency. For the molecule `O=C(O)c1ccccc1-c1c2ccc(=O)c([As]3SCCS3)c-2oc2c([As]3SCCS3)c(O)ccc12`, half-maximal inhibition (IC50) was put at 0.625 µM.
